# Legend:
# [1] = test system: MDA-MB-231 (breast carcinoma); experiment: IC50 against human cancer cell lines: MDA-MB-231; details: MDA-MB-231, read-out: IC50 ± SD against human cancer cell lines
# Description: (§1) More specifically, the IC50 values of test compounds were determined by carrying out a fluorimetric histone deacetylase assay following the manufacturer's instructions. For a pan-HDAC assay, HeLa nuclear extracts were used as a source of histone deacetylase (BioVision Inc.). Histone deacetylase isomer inhibition assays were conducted using purified recombinant histone deacetylase proteins of the various isomers (BPS Bioscience Inc.). Reactions were performed in 0.1 mol/L KCl, 20 mmol/L HEPES/NaOH at pH 7.9, 20% glycerol, 0.2 mmol/L DTA, 0.5 mmol/L DTT, and 0.5 mmol/L phenylmethylsulfonylfluoride. […] Reactions were carried out in triplicate for each test compound. Each point represented the mean±SD of replicates.
# KB-L30 (KB-resistant) = experiment: IC50 against human cancer cell lines: KB-L30; details: read-out: IC50 ± SD against human cancer cell lines
# Description: as §1
# KB-7D (KB resistant) = experiment: IC50 against human cancer cell lines: KB-7D; details: KB7D, read-out: IC50 ± SD against human cancer cell lines
# Description: as §1
# MCF-7 (breast carcinoma) = experiment: IC50 in human cancer cell lines (inhibiting HDAC): MCF-7; details: MCF7, read-out: IC50 ± SD against human cancer cell lines
# [2] = test system: histone and a-tubulin acetylation in human DU145 cells; experiment: Western blot: acetylation in DU145 cells; type: cell-based
# Description: More specifically, cells in the logarithmic phase were initially seeded at a density of 1×10^6 in 100 mm^2 dishes. […] IC50 indicia of compound in vitro potency) for the indicated times (i.e., 24 and 48 hours), adherent cells were collected for protein extract preparation. Briefly, cells were lysed with the cell lysis reagent CelLytic™ M (Sigma-Aldrich) containing 1 mM DTT, 1 mM PMSF and protease inhibitors for whole-cell lysate preparation. Equal amounts of lysate (on a protein basis) were then differentiated using the SDS-PAGE, blotted on PVDF membranes, conjugated with various specific primary antibodies, and then probed with appropriate secondary antibodies. The immunoreactive bands were detected using the ECL method and visualized on Kodak Bio-MAX MR film. Proteins from cells were extracted and subjected to the western blotting analysis. β-Actin was used as an internal control. The deacetylase enzyme assay was based on a homogeneous fluorescence release assay. […] After fluorophore from the deacetylated substrates, fluorescent signal was detected.
# [3] = test system: histone and α-tubulin acetylation in PC3 cells; experiment: Western blot: acetylation in PC3 cells; type: cell-based, human; details: concentration-dependent
# Description: More specifically, cells in the logarithmic phase were initially seeded at a density of 1×10^6 in 100 mm^2 dishes. […] Briefly, cells were lysed with the cell lysis reagent CelLytic™ M (Sigma-Aldrich) containing 1 mM DTT, 1 mM PMSF and protease inhibitors for whole-cell lysate preparation. Equal amounts of lysate (on a protein basis) were then differentiated using the SDS-PAGE, blotted on PVDF membranes, conjugated with various specific primary antibodies, and then probed with appropriate secondary antibodies. The immunoreactive bands were detected using the ECL method and visualized on Kodak Bio-MAX MR film.
# Proteins from cells were extracted and subjected to the western blotting analysis. β-Actin was used as an internal control. The deacetylase enzyme assay was based on a homogeneous fluorescence release assay. […] After fluorophore from the deacetylated substrates, fluorescent signal was detected.
# WI-38 (normal: lung) = experiment: IC50 against cell lines: WI-38; details: Homo sapiens, WI-38, read-out: IC50 ± SD against human cancer cell lines
# [4] = test system: Detroit551 (normal: fibroblast); experiment: IC50 against cell lines: Detroit551; details: Homo sapiens, Detroit 551, read-out: IC50 ± SD against human cancer cell lines
# KB-VIN10 (KB resistant) = experiment: IC50 against human cancer cell lines: KB-VIN10; details: Homo sapiens, KB-VIN10, read-out: IC50 ± SD against human cancer cell lines
# [5] = test system: DU-145 (prostate carcinoma); experiment: IC50 against human cancer cell lines: DU-145; details: DU-145, read-out: IC50 ± SD against human cancer cell lines
# Description: as §1
# [6] = test system: LNCaP-R1 (prostate carcinoma); experiment: IC50 against human cancer cell lines: LNCaP-R1; details: read-out: IC50 ± SD against human cancer cell lines
# Description: as §1
# [7] = test system: LNCaP-R2 (prostate carcinoma); experiment: IC50 against human cancer cell lines: LNCaP-R2; details: read-out: IC50 ± SD against human cancer cell lines
# [8] = test system: KB cell line (oral carcinoma); experiment: IC50 in human cancer cell lines (inhibiting HDAC): KB; details: Homo sapiens, read-out: IC50 ± SD against human cancer cell lines, KB, oral carcinoma
# [9] = test system: HT-29 (colorectal carcinoma); experiment: IC50 in human cancer cell lines (inhibiting HDAC): HT-29; details: HT-29, read-out: IC50 ± SD against human cancer cell lines
# [10] = test system: androgen-independent PC3 prostate cancer cells; experiment: Cell cycle analysis; type: cell-based, human; details: androgen-independent PC3 prostate cancer cells
# Description: More specifically, cells in the logarithmic phase were initially seeded at a density of 1×10^6 in 100 mm^2 dishes. After treatment with various concentrations of test compounds for the indicated times, cells were trypsinized, washed with PBS, and fixed in 70% ethanol. The fixed cells were then treated with 50 μg/mL RNase and stained with 50 μg/mL propidium iodide at room temperature for 20 minutes. The DNA content was determined by BD FACS Calibur flow cytometry system (BD Biosciences). For each analysis, 10,000 cells were counted, and the percentage of cells in each phase was calculated using ModFit LT software (Verity Software House, Inc.).
# [11] = test system: H460 (non-small-cell lung carcinoma); experiment: IC50 in human cancer cell lines (inhibiting HDAC): H460; details: NCI-H460, read-out: IC50 ± SD against human cancer cell lines
# PC3 (prostate carcinoma) = experiment: IC50 in human cancer cell lines (inhibiting HDAC): PC3; details: read-out: IC50 ± SD against human cancer cell lines
compound,measurement,setting,value
"O=C(/C=C/c1cnc2c(ccn2S(=O)(=O)c2ccccc2)c1)NO [Compound 14a, (E)-N-hydroxy-3-(1-(phenylsulfonyl)-1H-pyrrolo[2,3-b]pyridin-5-yl)acrylamide]",IC50,[1],0.184 ± 0.05 µM
same,IC50,KB-L30 (KB-resistant),0.445 ± 0.249 µM
same,IC50,KB-7D (KB resistant),0.276 ± 0.0784 µM
same,IC50,MCF-7 (breast carcinoma),0.17 ± 0.055 µM
same,histone and a-tubulin acetylation,[2],induced histone and a-tubulin acetylation
same,histone and α-tubulin acetylation,[3],induced histone and α-tubulin acetylation
same,IC50,WI-38 (normal: lung),> 1 µM
same,IC50,[4],> 1 µM
same,IC50,KB-VIN10 (KB resistant),0.213 µM
same,IC50,[5],0.42 ± 0.17 µM
same,IC50,[6],0.156 ± 0.04 µM
same,IC50,[7],0.141 ± 0.05 µM
same,IC50,[8],0.252 ± 0.0585 µM
same,IC50,[9],0.182 ± 0.0267 µM
same,cell cycle arrest and apoptosis,[10],induced cell cycle arrest and apoptosis
same,IC50,[11],0.243 ± 0.0704 µM
same,IC50,PC3 (prostate carcinoma),0.38 ± 0.22 µM
